According to patent US9216964B2, “Hedgehog pathway modulators” (Novartis AG, priority 2008, dated 2015):
pIC50: −log10 of the molar value.

system: hedgehog signaling pathway; experiment: Gli-Luc Reporter Assay for Hh Pathway Inhibition (TMHh-12 cells, pTA-8×Gli-Luc reporter); format: cell-based, Mouse; settings: Mus musculus, TMHh12, Ag1.5 1 nM; read-out: Hedgehog Inhibition IC50 (nM) (Ag1.5 1 nM)
In short: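 Mouse TM3 cells stably carrying an 8×Gli-firefly luciferase reporter, in 2% FBS medium; pathway activated with recombinant mouse Shh (8 μg/mL) or Smo agonist, compounds added at varying concentrations for 48 h. Luminescence read; IC50 at 50% signal reduction. Toxicity checked in TM3 cells (CellTiter-Glo) or constitutive-luciferase TM3-Luc cells.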

Row | IC50 | Structure (SMILES)
1 | 59 nM | Cc1ccc(Nc2cccc3c2CCN(S(C)(=O)=O)C3)cc1-c1nc2cnc(N(C)C)cc2[nH]1 [Compound 103]
2 | 0.0017 nM | O=C(NCCO)N1CCc2c(cccc2Nc2ccc(Cl)c(-c3ncc(-c4ccccc4)[nH]3)c2)C1 [Compound 42]
3 | 490 nM | Cc1c(Nc2cccc3c2CCN(S(C)(=O)=O)C3)cccc1-c1ccc(C#N)cc1 [Compound 90]
4 | 0.86 nM | CC1(C)CC(N2CCc3c(cccc3Nc3ccc(Cl)c(-c4ncc(-c5ccccc5)[nH]4)c3)C2)CC(C)(C)N1 [Compound 21]
5 | 0.5 nM | CC1(C(=O)N2CCc3c(cccc3Nc3ccc(Cl)c(-c4ncc(-c5ccccc5)[nH]4)c3)C2)CC1 [Compound 73]
6 | 101 nM | Cc1ccc(Nc2cccc3c2CCN(S(C)(=O)=O)C3)cc1-c1ccc(CC#N)cc1 [Compound 139]
7 | 2 nM | Clc1ccc(Nc2cccc3c2CCN(CC2CCCCC2)C3)cc1-c1ncc(-c2ccccc2)[nH]1 [Compound 23]
8 | 3 nM | CC(C)(C)OC(=O)N1CCc2c(cccc2Nc2ccc(Cl)c(-c3ncc(-c4ccccc4)[nH]3)c2)C1 [Compound 45]

same assay, conditions: Mus musculus, TMHh12, enzymatic and cellular assays for the inhibition of hedgehog signaling pathways; read-out: IC50 Ranges

Row | Structure (SMILES) | pIC50
9 | Cc1cnc(-c2cc(Nc3cccc4c3CCN(CCS(C)(=O)=O)C4)ccc2C)nc1 [Compound 263] | 6.00 to 7.00
10 | Cc1ccc(Nc2cccc3c2CCN(C2CCS(=O)(=O)C2)C3)cc1-c1ncc(F)cc1F (centres unmarked) [Compound 326] | 9.00 to 12.00
11 | Cc1ccc(Nc2cccc3c2CCN(C2CCS(=O)(=O)C2)C3)cc1-c1ccccn1 (centres unmarked) [Compound 265] | 9.00 to 12.00
12 | Cc1ccc(-c2cc(Nc3ncnc4c3CCN(C3CCS(=O)(=O)CC3)C4)ccc2C)nc1 [Compound 277] | 7.00 to 8.00
13 | Cc1ccc(Nc2cccc3c2CCN(CCS(C)(=O)=O)C3)cc1-c1cc2ccccc2cn1 [Compound 315] | 9.00 to 12.00
14 | Cc1ccc(Nc2cccc3c2CCN(C2CS(=O)(=O)C2)C3)cc1-c1cc2ccccc2cn1 [Compound 316] | 9.00 to 12.00
15 | COc1cnc(-c2cc(Nc3cccc4c3CCN(CCS(C)(=O)=O)C4)ccc2C)cn1 [Compound 264] | 8.00 to 9.00
16 | COc1cncc(-c2cc(Nc3cccc4c3CCN(S(C)(=O)=O)C4)ccc2C)n1 [Compound 255] | 6.00 to 7.00
17 | Cc1ccc(Nc2cccc3c2CCN(CCC(F)(F)F)C3)cc1-c1ccc(F)cn1 [Compound 252] | 9.00 to 12.00
18 | CC1(C(=O)N2CCc3c(cccc3Nc3ccc(Cl)c(-c4ncc(-c5ccccc5)[nH]4)c3)C2)CC1 [Compound 73] | 9.00 to 12.00
19 | Cc1ccc(Nc2cccc3c2CCN(S(C)(=O)=O)C3)cc1-c1ncccc1F [Compound 227] | 9.00 to 12.00
20 | Cc1ccc(NC(=O)c2cc(Nc3cccc4c3CCN(S(C)(=O)=O)C4)ccc2C)cc1 [Compound 186] | 9.00 to 12.00
21 | COc1ccc(-c2cc(Nc3cccc4c3CCN([C@@H]3CCS(=O)(=O)C3)C4)ccc2C)nn1 [Compound 321] | 8.00 to 9.00
22 | O=C(O)CN1CCc2c(cccc2Nc2ccc(Cl)c(-c3nc(-c4ccccc4)c[nH]3)c2)C1 [Compound 53] | 7.00 to 8.00
23 | Cc1ccc(-c2cc(Nc3cccc4c3CCN([C@H]3CCS(=O)(=O)C3)C4)ccc2C)nc1 [Compound 280] | 9.00 to 12.00
24 | Cc1cccc(-c2cc(Nc3cccc4c3CCN(S(C)(=O)=O)C4)ccc2C)n1 [Compound 191] | 8.00 to 9.00
25 | Cc1ccc(-c2cc(Nc3cccc4c3CCN(S(C)(=O)=O)C4)ccc2C)nn1 [Compound 170] | 8.00 to 9.00
26 | Clc1ccc(Nc2cccc3c2CCN(CC2CCOCC2)C3)cc1-c1ncc(-c2ccccc2)[nH]1 [Compound 39] | 9.00 to 12.00
27 | Cc1ccc(Nc2cccc3c2CCN(CCS(C)(=O)=O)C3)cc1C(=O)Nc1ccccc1 [Compound 246] | 7.00 to 8.00

More lines, now with the values ahead:

Row | pIC50 | Structure (SMILES)
28 | 8.00 to 9.00 | Clc1ccc(Nc2cccc3c2CCN(C2CCCCC2)C3)cc1-c1ncc(-c2ccccc2)[nH]1 [Compound 22]
29 | 9.00 to 12.00 | Cc1ccc(-c2cc(Nc3cccc4c3CCN(S(C)(=O)=O)C4)ccc2C)nc1 [Compound 169]
30 | 7.00 to 8.00 | Cc1ccc(-c2cc(Nc3nccc4c3CCN(S(C)(=O)=O)C4)ccc2C)nc1 [Compound 236]
31 | 8.00 to 9.00 | CCOc1ccc(-c2nc(Nc3cccc4c3CCN(S(=O)(=O)C(C)C)C4)ccc2C)nn1 [Compound 328]
32 | 7.00 to 8.00 | Cc1ccnc(-c2cc(Nc3cccc4c3CCN(S(C)(=O)=O)C4)ccc2C)n1 [Compound 219]
33 | 9.00 to 12.00 | Cc1ccc(-c2cc(Nc3cccc4c3CCN(CCC(F)(F)F)C4)ccc2C)nc1 [Compound 251]
34 | 8.00 to 9.00 | C[S+]([O-])CCCN1CCc2c(cccc2Nc2ccc(Cl)c(-c3ncc(-c4ccccc4)[nH]3)c2)C1 (centres unmarked) [Compound 47]
35 | 9.00 to 12.00 | Cc1ccc(Nc2cccc3c2CCN(S(C)(=O)=O)C3)cc1-c1nc2cc(F)ccc2[nH]1 [Compound 61]
36 | 7.00 to 8.00 | Cc1ccc(Nc2cccc3c2CCN(S(C)(=O)=O)C3)cc1-c1nc2cnc(N(C)C)cc2[nH]1 [Compound 103]
37 | 9.00 to 12.00 | Clc1ccc(Nc2cccc3c2CCN(C2CCOCC2)C3)cc1-c1ncc(-c2ccccc2)[nH]1 [Compound 29]
38 | 9.00 to 12.00 | Cc1ccc(-c2cc(Nc3cccc4c3CCN(C3CCS(=O)(=O)CC3)C4)ccc2C)nc1 [Compound 235]
39 | 9.00 to 12.00 | O=C(NCCO)N1CCc2c(cccc2Nc2ccc(Cl)c(-c3ncc(-c4ccccc4)[nH]3)c2)C1 [Compound 42]
40 | 8.00 to 9.00 | CCOc1ccc(-c2cc(Nc3cccc4c3CCN(CCS(=O)(=O)CC)C4)ccc2C)nn1 [Compound 297]
41 | 6.00 to 7.00 | Cc1c(Nc2cccc3c2CCN(S(C)(=O)=O)C3)cccc1-c1ccc(C#N)cc1 [Compound 90]
42 | 9.00 to 12.00 | CC1(C)CC(N2CCc3c(cccc3Nc3ccc(Cl)c(-c4ncc(-c5ccccc5)[nH]4)c3)C2)CC(C)(C)N1 [Compound 21]
43 | 9.00 to 12.00 | Cc1ccc(Nc2cccc3c2CCN(S(C)(=O)=O)C3)cc1-c1ccc(Cl)cn1 [Compound 173]

Row | pIC50 | Structure (SMILES)
44 | 7.00 to 8.00 | Cc1ccc(Nc2cccc3c2CCN(S(C)(=O)=O)C3)cc1-c1nc2ncncc2[nH]1 [Compound 63]
45 | 6.00 to 7.00 | Cc1cc(C#N)ccc1-c1cccc(Nc2cccc3c2CCN(S(C)(=O)=O)C3)c1 [Compound 168]
46 | 9.00 to 12.00 | CS(=O)(=O)N1CCc2c(ccnc2Nc2ccc(Cl)c(-c3ncc(-c4ccccc4)[nH]3)c2)C1 [Compound 133]
47 | 8.00 to 9.00 | OC[C@@H](O)CN1CCc2c(cccc2Nc2ccc(Cl)c(-c3ncc(-c4ccccc4)[nH]3)c2)C1 [Compound 93]
48 | 9.00 to 12.00 | Clc1ccc(Nc2cccc3c2CCN(C2CC2)C3)cc1-c1ncc(-c2ccccc2)[nH]1 [Compound 82]
49 | 7.00 to 8.00 | Cc1ccc(Nc2cccc3c2CCN(C[C@H](O)CO)C3=O)cc1-c1nc2ccccc2[nH]1 [Compound 81]
50 | 9.00 to 12.00 | Cc1ccc(-c2cc(Nc3cccc4c3CCN(CC(C)(C)O)C4)ccc2C)nc1 [Compound 201]
51 | 9.00 to 12.00 | Cc1ccc(-c2cc(Nc3cccc4c3CCN(CCS(C)(=O)=O)C4)ccc2C)nc1 [Compound 223]
52 | 6.00 to 7.00 | CS(=O)(=O)N1CCc2c(cccc2Nc2ccc(CO)c(-c3ccc(C#N)cc3)c2)C1 [Compound 178]
53 | 6.00 to 7.00 | Cc1ccc(Nc2cccc3c2CCN(S(C)(=O)=O)C3)cc1-c1ccc(CC#N)cc1 [Compound 139]
54 | 8.00 to 9.00 | CCS(=O)(=O)CCN1CCc2c(cccc2Nc2ccc(C)c(-c3ncccc3F)c2)C1 [Compound 283]
55 | 8.00 to 9.00 | Clc1ccc(Nc2cccc3c2CCN(CC2CCCCC2)C3)cc1-c1ncc(-c2ccccc2)[nH]1 [Compound 23]
56 | 8.00 to 9.00 | Cc1ccc(Nc2cccc3c2CCN(S(C)(=O)=O)C3)cc1-c1cnc(N(C)C)cn1 [Compound 253]
57 | 8.00 to 9.00 | O=C(O)C(F)(F)CN1CCc2c(cccc2Nc2ccc(Cl)c(-c3nc(-c4ccccc4)c[nH]3)c2)C1 [Compound 64]
58 | 8.00 to 9.00 | CC(C)(C)OC(=O)N1CCc2c(cccc2Nc2ccc(Cl)c(-c3ncc(-c4ccccc4)[nH]3)c2)C1 [Compound 45]

same assay, conditions: enzymatic and cellular assays for the inhibition of hedgehog signaling pathways; read-out: IC50 Ranges

Row | pIC50 | Structure (SMILES)
59 | 9.00 to 12.00 | [O-][S+]1CCC(N2CCc3c(cccc3Nc3ccc(Cl)c(-c4ncc(-c5ccccc5)[nH]4)c3)C2)CC1 (centres unmarked) [Compound 1]
60 | 9.00 to 12.00 | Cc1ccc(Nc2cccc3c2CCN([C@H]2CCS(=O)(=O)C2)C3)cc1-c1ncccc1F [Compound 345]
61 | 9.00 to 12.00 | Cc1ccc(Nc2cccc3c2CCN(C2CCS(=O)(=O)C2)C3)cc1-c1ncc(F)cc1F (centres unmarked) [Compound 338]
62 | 8.00 to 9.00 | Cc1ccc(Nc2cccc3c2CCN(S(C)(=O)=O)C3)cc1-c1ccc(C(F)(F)F)cn1 [Compound 167]
